Reference: ChEMBL document CHEMBL1139680, “2,4-Disubstituted piperidines as selective CC chemokine receptor 3 (CCR3) antagonists: synthesis and selectivity” (Bioorg Med Chem Lett, 2006)

Experiments:
[1] = biological target: T1, C-C chemokine receptor type 3 (Homo sapiens, UniProt P51677); experiment: Binding affinity to CCR3
T1 sequence (P51677 whole entry): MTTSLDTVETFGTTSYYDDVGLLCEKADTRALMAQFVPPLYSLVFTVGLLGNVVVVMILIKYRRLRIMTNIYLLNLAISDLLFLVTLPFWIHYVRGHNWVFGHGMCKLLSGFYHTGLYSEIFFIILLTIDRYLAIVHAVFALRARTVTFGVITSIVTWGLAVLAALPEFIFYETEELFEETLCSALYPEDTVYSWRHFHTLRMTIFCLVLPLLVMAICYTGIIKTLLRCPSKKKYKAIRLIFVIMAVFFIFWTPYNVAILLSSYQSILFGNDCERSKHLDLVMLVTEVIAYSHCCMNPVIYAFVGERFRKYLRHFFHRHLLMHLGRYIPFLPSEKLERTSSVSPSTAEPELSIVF

[2] = biological target: Sodium-dependent serotonin transporter (Homo sapiens, UniProt P31645); experiment: Inhibition of 5HTT
Sodium-dependent serotonin transporter, sequence (P31645 whole entry): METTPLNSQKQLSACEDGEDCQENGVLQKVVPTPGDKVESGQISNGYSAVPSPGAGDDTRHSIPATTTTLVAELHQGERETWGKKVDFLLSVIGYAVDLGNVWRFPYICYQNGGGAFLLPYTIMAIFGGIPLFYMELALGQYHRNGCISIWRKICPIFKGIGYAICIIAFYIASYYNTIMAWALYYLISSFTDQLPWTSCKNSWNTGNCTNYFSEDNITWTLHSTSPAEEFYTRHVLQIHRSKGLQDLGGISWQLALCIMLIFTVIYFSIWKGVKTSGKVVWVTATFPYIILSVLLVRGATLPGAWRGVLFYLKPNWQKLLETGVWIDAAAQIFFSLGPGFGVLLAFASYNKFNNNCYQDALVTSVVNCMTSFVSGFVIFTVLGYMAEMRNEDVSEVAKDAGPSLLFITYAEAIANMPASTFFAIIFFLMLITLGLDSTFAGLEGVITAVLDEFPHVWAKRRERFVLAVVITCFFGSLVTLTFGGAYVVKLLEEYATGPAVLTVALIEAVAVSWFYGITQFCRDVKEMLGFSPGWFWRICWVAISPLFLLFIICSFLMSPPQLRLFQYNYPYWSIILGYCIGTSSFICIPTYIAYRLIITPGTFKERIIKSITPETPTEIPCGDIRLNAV

[3] = biological target: Sodium-dependent dopamine transporter (Homo sapiens, UniProt Q01959); experiment: Inhibition of DAT
Sodium-dependent dopamine transporter, sequence (Q01959 whole entry): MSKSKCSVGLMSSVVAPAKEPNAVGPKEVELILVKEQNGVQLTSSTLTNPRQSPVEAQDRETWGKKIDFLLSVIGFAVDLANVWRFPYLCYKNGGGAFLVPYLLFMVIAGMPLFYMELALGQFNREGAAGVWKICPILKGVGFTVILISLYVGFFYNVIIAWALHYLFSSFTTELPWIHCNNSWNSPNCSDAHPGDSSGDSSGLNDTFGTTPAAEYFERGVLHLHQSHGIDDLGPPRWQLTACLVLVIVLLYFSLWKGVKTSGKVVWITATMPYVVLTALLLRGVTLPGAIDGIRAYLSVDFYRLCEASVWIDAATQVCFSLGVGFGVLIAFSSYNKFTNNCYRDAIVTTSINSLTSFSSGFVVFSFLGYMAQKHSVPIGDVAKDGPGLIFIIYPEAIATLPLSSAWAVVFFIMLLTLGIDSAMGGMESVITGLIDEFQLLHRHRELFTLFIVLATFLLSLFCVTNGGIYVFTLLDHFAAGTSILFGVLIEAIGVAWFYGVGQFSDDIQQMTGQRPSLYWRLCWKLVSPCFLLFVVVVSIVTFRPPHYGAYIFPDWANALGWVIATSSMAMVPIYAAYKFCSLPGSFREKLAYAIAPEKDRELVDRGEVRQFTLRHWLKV

[4] = biological target: Sodium-dependent noradrenaline transporter (Homo sapiens, UniProt P23975); experiment: Inhibition of NET
Sodium-dependent noradrenaline transporter, sequence (P23975 whole entry): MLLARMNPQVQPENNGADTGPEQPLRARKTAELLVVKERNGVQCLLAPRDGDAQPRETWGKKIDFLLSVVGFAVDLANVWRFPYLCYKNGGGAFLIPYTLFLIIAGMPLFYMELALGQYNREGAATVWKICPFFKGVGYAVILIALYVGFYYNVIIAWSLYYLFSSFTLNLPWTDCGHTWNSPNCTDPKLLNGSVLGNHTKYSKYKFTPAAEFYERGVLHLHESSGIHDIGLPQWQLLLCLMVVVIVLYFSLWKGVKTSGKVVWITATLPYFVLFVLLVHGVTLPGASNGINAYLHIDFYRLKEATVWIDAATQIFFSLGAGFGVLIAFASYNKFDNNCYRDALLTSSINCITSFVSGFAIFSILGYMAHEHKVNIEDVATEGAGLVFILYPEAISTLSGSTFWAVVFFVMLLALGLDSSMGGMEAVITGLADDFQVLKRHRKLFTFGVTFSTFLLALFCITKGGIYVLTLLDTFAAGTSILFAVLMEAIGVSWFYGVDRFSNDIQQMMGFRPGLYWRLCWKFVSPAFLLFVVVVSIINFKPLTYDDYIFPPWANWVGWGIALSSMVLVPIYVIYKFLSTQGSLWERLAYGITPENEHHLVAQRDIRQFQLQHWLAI

[5] = test system: Eosinophil; experiment: Inhibition of eotaxin-induced calcium mobilization in eosinophil; assay type: functional, cell-based; conditions: Homo sapiens
[6] = Clearance in cynomolgus monkey at 2 mg/kg, iv; assay type: ADME, organism-based, Macaca fascicularis; parameters: dose 2 mg/kg, route intravenous; conditions: in vivo
[7] = Half life in cynomolgus monkey at 5 mg/kg, po; assay type: ADME, organism-based, Macaca fascicularis; parameters: dose 5 mg/kg, route oral; conditions: in vivo
[8] = Volume of distribution in cynomolgus monkey at 2 mg/kg, iv; assay type: ADME, organism-based, Macaca fascicularis; parameters: dose 2 mg/kg, route intravenous; conditions: in vivo, read-out: Vdss
[9] = Oral bioavailability in cynomolgus monkey at 5 mg/kg, po; assay type: ADME, organism-based, Macaca fascicularis; conditions: in vivo
[10] = Clearance in mouse at 2 mg/kg, iv; assay type: ADME, organism-based; parameters: dose 2 mg/kg, route intravenous; conditions: in vivo
[11] = Volume of distribution in mouse ar 2 mg/kg, iv; assay type: ADME, organism-based; parameters: dose 2 mg/kg, route intravenous; conditions: in vivo, read-out: Vdss
[12] = Oral bioavailability in mouse at 10 mg/kg, po; assay type: ADME, organism-based; conditions: in vivo
[13] = Half life in mouse at 10 mg/kg, po; assay type: ADME, organism-based; parameters: dose 10 mg/kg, route oral; conditions: in vivo
[14] = Cmax in mice after 10 mg/kg oral dose; assay type: ADME, organism-based; parameters: dose 10 mg/kg, route oral; conditions: mouse, in vivo
[15] = test system: Eosinophil; experiment: Inhibition of eotaxin-induced human eosinophil chemotaxis; assay type: functional, cell-based
[16] = Cmax in cynomolgus monkeys after 5 mg/kg oral dose; assay type: ADME, organism-based, Macaca fascicularis; parameters: dose 5 mg/kg, route oral; conditions: cynomolgus monkey, in vivo

CC(=O)c1cc(NC(=O)NCCC[C@H]2C[C@H](Cc3ccc(F)cc3)CCN2CC(F)(F)F)cc(C(C)=O)c1
IC50 [1]: 1380 nM (antagonist)

CC(=O)c1cc(NC(=O)NCCC[C@H]2C[C@H](Cc3ccc(F)cc3)CCN2)cc(C(C)=O)c1
Ki [2]: 3.5 nM
Ki [3]: 119 nM
Ki [4]: 95 nM
IC50 [1]: 0.5 nM (antagonist)

CC(=O)c1cccc(NC(=O)NCCC[C@H]2C[C@H](Cc3ccc(F)cc3)CCN2C)c1
Ki [2]: 572 nM
Ki [3]: 96 nM
Ki [4]: 257 nM
IC50 [1]: 1.7 nM (antagonist)

C=CCN1CC[C@@H](Cc2ccc(F)cc2)C[C@@H]1CCCNC(=O)Nc1cc(C(C)=O)cc(C(C)=O)c1
Ki [2]: 69 nM
Ki [3]: 297 nM
Ki [4]: 876 nM
IC50 [1]: 1 nM (antagonist)

CC(=O)c1cc(NC(=O)NCCC[C@H]2C[C@H](Cc3ccc(F)cc3)CCN2CCO)cc(C(C)=O)c1
Ki [2]: 40 nM
Ki [3]: 451 nM
Ki [4]: 1390 nM
IC50 [1]: 0.9 nM (antagonist)

CC(=O)c1cccc(NC(=O)NCCC[C@H]2C[C@H](Cc3ccc(F)cc3)CCN2)c1
Ki [2]: 18 nM
Ki [3]: 219 nM
Ki [4]: 233 nM
IC50 [1]: 1.4 nM (antagonist)

CC(=O)c1cc(NC(=O)NCCC[C@H]2C[C@H](Cc3ccc(F)cc3)CCN2CCF)cc(C(C)=O)c1
Ki [2]: 49 nM
Ki [3]: 651 nM
Ki [4]: 317 nM
IC50 [1]: 2.3 nM (antagonist)

C#CCN1CC[C@@H](Cc2ccc(F)cc2)C[C@@H]1CCCNC(=O)Nc1cc(C(C)=O)cc(C(C)=O)c1
Ki [2]: 305 nM
Ki [3]: 621 nM
Ki [4]: 524 nM
IC50 [1]: 1.9 nM (antagonist)

CC(=O)c1cc(NC(=O)NCCC[C@H]2C[C@H](Cc3ccc(F)cc3)CCN2C(=N)N)cc(C(C)=O)c1
Ki [2]: 19 nM
Ki [3]: 31 nM
Ki [4]: 388 nM
IC50 [1]: 4.3 nM (antagonist)

CC(=O)c1cccc(NC(=O)NCCC[C@H]2C[C@H](Cc3ccc(F)cc3)CCN2CCO)c1
Ki [2]: 50 nM
Ki [3]: 2240 nM
Ki [4]: 1820 nM
IC50 [1]: 7 nM (antagonist)

CC(=O)c1cccc(NC(=O)NCCC[C@H]2C[C@H](Cc3ccc(F)cc3)CCN2CC2CC2)c1
Ki [2]: 117 nM
Ki [3]: 251 nM
Ki [4]: 3450 nM
IC50 [1]: 2.5 nM (antagonist)

CCCN1CC[C@@H](Cc2ccc(F)cc2)C[C@@H]1CCCNC(=O)Nc1cccc(C(C)=O)c1
IC50 [5]: 26 nM
clearance [6]: 6.67 mL/min/kg
half-life [7]: 9 h
Ki [2]: 296 nM
Vd [8]: 3.1 L/kg
bioavailability [9]: 18%
clearance [10]: 177 mL/min/kg
Vd [11]: 8 L/kg
bioavailability [12]: 36%
half-life [13]: 1.4 h
Cmax [14]: 274 nM
Ki [3]: 756 nM
EC50 [15]: 19 nM
Cmax [16]: 989 nM
Ki [4]: 4170 nM
IC50 [1]: 2 nM (antagonist)

C=CCN1CC[C@@H](Cc2ccc(F)cc2)C[C@@H]1CCCNC(=O)Nc1cccc(C(C)=O)c1
Ki [2]: 217 nM
Ki [3]: 855 nM
Ki [4]: 1230 nM
IC50 [1]: 4.1 nM (antagonist)

CC(=O)CN1CC[C@@H](Cc2ccc(F)cc2)C[C@@H]1CCCNC(=O)Nc1cc(C(C)=O)cc(C(C)=O)c1
Ki [2]: 11 nM
Ki [3]: 754 nM
Ki [4]: 381 nM
IC50 [1]: 0.9 nM (antagonist)

CC(=O)c1cc(NC(=O)NCCC[C@H]2C[C@H](Cc3ccc(F)cc3)CCN2C(C)=O)cc(C(C)=O)c1
IC50 [5]: 133 nM
Ki [2]: 5460 nM
Ki [3]: 1220 nM
EC50 [15]: > 100 nM
Ki [4]: 1380 nM
IC50 [1]: 3.9 nM (antagonist)

CC(=O)c1cc(NC(=O)NCCC[C@H]2C[C@H](Cc3ccc(F)cc3)CCN2CCCO)cc(C(C)=O)c1
Ki [2]: 212 nM
Ki [3]: 609 nM
Ki [4]: 497 nM
IC50 [1]: 1.3 nM (antagonist)

CCC(=O)N1CC[C@@H](Cc2ccc(F)cc2)C[C@@H]1CCCNC(=O)Nc1cc(C(C)=O)cc(C(C)=O)c1
Ki [2]: 224 nM
Ki [3]: 2080 nM
Ki [4]: 9260 nM
IC50 [1]: 5.8 nM (antagonist)

CC(=O)c1cc(NC(=O)NCCC[C@H]2C[C@H](Cc3ccc(F)cc3)CCN2CC(N)=O)cc(C(C)=O)c1
Ki [2]: 710 nM
Ki [3]: 2660 nM
Ki [4]: 5010 nM
IC50 [1]: 3.6 nM (antagonist)

CCCN1CC[C@@H](Cc2ccc(F)cc2)C[C@@H]1CCCNC(=O)Nc1cc(C(C)=O)cc(C(C)=O)c1
IC50 [5]: 1.2 nM
Ki [2]: 166 nM
Ki [3]: 157 nM
EC50 [15]: 4.7 nM
Ki [4]: 1480 nM
IC50 [1]: 0.7 nM (antagonist)

CC(=O)c1cc(NC(=O)NCCC[C@H]2C[C@H](Cc3ccc(F)cc3)CCN2CC(F)F)cc(C(C)=O)c1
Ki [2]: 328 nM
Ki [3]: 931 nM
Ki [4]: 1050 nM
IC50 [1]: 12.4 nM (antagonist)

CC(=O)c1cccc(NC(=O)NCCC[C@H]2C[C@H](Cc3ccccc3)CCN2)c1 (racemic)
Ki [2]: 42 nM
Ki [3]: 32 nM
Ki [4]: 39 nM
IC50 [1]: 6 nM (antagonist)

N#Cc1cccc(NC(=O)NCCC[C@H]2C[C@H](Cc3ccccc3)CCN2)c1 (racemic)
IC50 [1]: 22 nM (antagonist)

N#Cc1cccc(NC(=O)NCCCC[C@H]2C[C@H](Cc3ccccc3)CCN2)c1 (racemic)
IC50 [1]: 142 nM (antagonist)

N#Cc1cccc(NC(=O)NCCC[C@@H]2C[C@H](Cc3ccccc3)CCN2)c1 (racemic)
IC50 [1]: 386 nM (antagonist)

N#Cc1cccc(NC(=O)NCC[C@H]2C[C@H](Cc3ccccc3)CCN2)c1 (racemic)
IC50 [1]: 185 nM (antagonist)

N#Cc1cccc(NC(=O)NCCC[C@H]2C[C@H](Cc3ccccc3)CCN2)c1 (stereo in doubt; 4)
Ki [2]: 35 nM
Ki [3]: 34 nM
Ki [4]: 37 nM
IC50 [1]: 13 nM (antagonist)

N#Cc1cccc(NC(=O)NCCC[C@H]2C[C@H](Cc3ccccc3)CCN2)c1 (stereo in doubt; 5)
Ki [2]: 54 nM
Ki [3]: 10 nM
Ki [4]: 46 nM
IC50 [1]: 644 nM (antagonist)
